Data published in patent publication US12172995B2, “Substituted indole and indazole compounds” (BRISTOL-MYERS SQUIBB COMPANY, priority 2018, dated 2024).

Assays:
Assay type in all cases: cell-based
human TLR9 = biological target: T1, human TLR9 (Homo sapiens, UniProt Q9NR96); assay: TLR9 inhibition reporter assay (HEK-Blue SEAP); conditions: HEK-Blue cells overexpressing human TLR9, stimulated with ODN2006 5 nM, 22 hour incubation
T1 construct: host or cells: HEK-Blue cells
T1 sequence (Q9NR96 26-1032): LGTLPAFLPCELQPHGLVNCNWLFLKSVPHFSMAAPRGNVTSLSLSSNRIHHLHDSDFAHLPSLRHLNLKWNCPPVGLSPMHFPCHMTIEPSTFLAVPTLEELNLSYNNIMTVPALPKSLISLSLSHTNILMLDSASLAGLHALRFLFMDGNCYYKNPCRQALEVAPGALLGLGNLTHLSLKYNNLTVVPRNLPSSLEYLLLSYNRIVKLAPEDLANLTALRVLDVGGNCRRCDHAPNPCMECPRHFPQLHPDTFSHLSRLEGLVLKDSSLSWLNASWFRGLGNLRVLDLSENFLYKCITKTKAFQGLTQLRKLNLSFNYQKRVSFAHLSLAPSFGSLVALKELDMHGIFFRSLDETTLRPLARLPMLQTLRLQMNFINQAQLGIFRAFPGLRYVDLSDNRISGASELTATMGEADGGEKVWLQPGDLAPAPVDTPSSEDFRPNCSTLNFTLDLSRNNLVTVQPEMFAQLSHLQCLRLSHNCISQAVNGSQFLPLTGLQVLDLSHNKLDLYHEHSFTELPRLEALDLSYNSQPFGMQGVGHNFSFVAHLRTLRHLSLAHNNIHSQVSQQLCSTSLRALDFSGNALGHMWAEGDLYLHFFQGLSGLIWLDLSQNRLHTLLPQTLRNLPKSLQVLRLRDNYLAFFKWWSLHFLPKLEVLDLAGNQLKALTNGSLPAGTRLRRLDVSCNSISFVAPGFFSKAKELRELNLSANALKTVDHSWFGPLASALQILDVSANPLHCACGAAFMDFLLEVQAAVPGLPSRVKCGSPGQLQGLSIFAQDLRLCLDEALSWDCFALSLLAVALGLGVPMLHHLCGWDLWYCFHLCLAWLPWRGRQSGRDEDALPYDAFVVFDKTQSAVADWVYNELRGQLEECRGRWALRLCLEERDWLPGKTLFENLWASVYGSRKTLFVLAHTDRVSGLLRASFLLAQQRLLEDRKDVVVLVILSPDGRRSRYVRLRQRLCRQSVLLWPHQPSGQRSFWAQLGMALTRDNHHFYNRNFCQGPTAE
Summary of the method: (§1)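 HEK-Blue cells overexpressing human TLR7, TLR8 or TLR9 with an NF-κB/AP-1-driven SEAP reporter were pre-treated 30 min at room temperature with compound (0.05 nM to 50 μM), then stimulated with gardiquimod 7.5 μM (TLR7), R848 15.9 μM (TLR8) or ODN2006 5 nM (TLR9). SEAP measured after 22 h at 37° C; inhibition normalized between agonist-plus-DMSO and reference-inhibitor wells.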

human TLR8 = biological target: T2, human TLR8 (Homo sapiens, UniProt Q9NR97); assay: TLR8 inhibition reporter assay (HEK-Blue SEAP); conditions: HEK-Blue cells overexpressing human TLR8, stimulated with R848 15.9 μM, 22 hour incubation
T2 construct: host or cells: HEK-Blue cells
T2 sequence (Q9NR97 27-1041): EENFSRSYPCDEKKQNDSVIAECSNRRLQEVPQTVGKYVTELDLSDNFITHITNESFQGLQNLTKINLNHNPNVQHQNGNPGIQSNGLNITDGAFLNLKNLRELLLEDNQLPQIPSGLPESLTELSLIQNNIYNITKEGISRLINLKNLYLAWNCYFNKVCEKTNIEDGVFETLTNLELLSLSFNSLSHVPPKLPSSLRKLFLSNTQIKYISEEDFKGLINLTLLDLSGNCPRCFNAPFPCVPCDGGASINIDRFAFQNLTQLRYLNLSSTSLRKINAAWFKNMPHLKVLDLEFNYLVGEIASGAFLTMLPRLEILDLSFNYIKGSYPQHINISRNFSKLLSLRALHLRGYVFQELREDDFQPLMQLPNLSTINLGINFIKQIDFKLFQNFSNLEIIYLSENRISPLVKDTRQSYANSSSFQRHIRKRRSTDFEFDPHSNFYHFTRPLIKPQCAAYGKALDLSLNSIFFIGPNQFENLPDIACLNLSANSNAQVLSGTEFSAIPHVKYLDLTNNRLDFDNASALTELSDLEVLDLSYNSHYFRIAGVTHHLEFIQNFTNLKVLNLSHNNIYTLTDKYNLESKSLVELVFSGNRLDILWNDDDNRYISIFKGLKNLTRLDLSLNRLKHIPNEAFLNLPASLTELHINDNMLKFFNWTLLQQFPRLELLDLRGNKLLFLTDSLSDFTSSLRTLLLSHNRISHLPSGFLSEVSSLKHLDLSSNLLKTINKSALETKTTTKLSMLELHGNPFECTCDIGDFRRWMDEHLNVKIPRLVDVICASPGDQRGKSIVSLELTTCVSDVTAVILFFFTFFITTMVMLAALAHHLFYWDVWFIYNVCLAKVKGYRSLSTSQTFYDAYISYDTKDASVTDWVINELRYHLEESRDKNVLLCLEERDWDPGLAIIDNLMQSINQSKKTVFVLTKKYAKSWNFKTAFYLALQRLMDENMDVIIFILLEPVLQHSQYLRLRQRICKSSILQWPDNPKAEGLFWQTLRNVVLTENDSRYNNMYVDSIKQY
Summary of the method: as §1

human TLR7 = biological target: T3, human TLR7 (Homo sapiens, UniProt Q9NYK1); assay: TLR7 inhibition reporter assay (HEK-Blue SEAP); conditions: HEK-Blue cells overexpressing human TLR7, stimulated with gardiquimod 7.5 μM, 22 hour incubation
T3 construct: host or cells: HEK-Blue cells
T3 sequence (Q9NYK1 27-1049): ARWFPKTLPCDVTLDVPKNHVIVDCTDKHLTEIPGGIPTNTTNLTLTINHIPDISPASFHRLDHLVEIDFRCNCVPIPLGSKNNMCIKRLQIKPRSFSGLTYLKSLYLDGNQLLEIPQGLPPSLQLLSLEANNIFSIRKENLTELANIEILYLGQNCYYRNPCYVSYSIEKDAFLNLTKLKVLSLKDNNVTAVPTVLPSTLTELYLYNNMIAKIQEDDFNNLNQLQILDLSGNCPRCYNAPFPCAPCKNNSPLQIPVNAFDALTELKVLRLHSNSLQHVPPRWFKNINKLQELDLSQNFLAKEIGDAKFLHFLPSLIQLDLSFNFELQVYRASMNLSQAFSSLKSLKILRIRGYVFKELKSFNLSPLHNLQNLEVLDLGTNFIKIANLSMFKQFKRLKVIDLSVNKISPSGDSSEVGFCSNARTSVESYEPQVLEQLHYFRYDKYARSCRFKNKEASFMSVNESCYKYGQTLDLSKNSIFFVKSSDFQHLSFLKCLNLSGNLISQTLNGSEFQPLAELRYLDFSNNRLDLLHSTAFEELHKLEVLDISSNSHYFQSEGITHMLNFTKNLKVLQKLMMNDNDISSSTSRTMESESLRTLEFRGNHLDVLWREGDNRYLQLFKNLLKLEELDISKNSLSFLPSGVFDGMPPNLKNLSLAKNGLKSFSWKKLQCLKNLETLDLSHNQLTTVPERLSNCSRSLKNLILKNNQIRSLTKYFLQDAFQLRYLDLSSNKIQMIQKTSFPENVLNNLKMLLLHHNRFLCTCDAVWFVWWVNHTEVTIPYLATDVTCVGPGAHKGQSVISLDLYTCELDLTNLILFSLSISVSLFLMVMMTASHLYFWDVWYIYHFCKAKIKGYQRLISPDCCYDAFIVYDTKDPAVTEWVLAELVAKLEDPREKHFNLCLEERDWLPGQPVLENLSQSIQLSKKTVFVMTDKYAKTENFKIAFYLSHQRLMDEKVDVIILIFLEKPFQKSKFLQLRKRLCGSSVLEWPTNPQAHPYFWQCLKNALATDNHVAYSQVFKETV
Summary of the method: as §1

Row | SMILES | IC50 (human TLR9) [nM] | IC50 (human TLR8) [nM] | IC50 (human TLR7) [nM]
1 | CCc1cc2c(C3CCN(C(=O)CCN(C)C)CC3)n[nH]c2cc1-c1cc(C)c2ncnn2c1 [Example 103, 3-(dimethylamino)-1-(4-(5-ethyl-6-(8-methyl-[1,2,4]triazolo[1,5-a]pyridin-6-yl)-1H-indazol-3-yl)piperidin-1-yl)propan-1-one] | 12200 | 0.9 | 11
2 | CCc1cc2c(C3CCN(CC#N)CC3)n[nH]c2cc1-c1cc(C)c2ncnn2c1 [Example 104, 2-(4-(5-ethyl-6-(8-methyl-[1,2,4]triazolo[1,5-a]pyridin-6-yl)-1H-indazol-3-yl)piperidin-1-yl)acetonitrile] | 13600 | 0.8 | 6.9
3 | CCc1cc2c(C3CCN(Cc4cn(C)nn4)CC3)n[nH]c2cc1-c1cc(C)c2ncnn2c1 [Example 105, 6-(5-ethyl-3-(1-((1-methyl-1H-1,2,3-triazol-4-yl)methyl)piperidin-4-yl)-1H-indazol-6-yl)-8-methyl-[1,2,4] triazolo[1,5-a]pyridine] | 8780 | 0.1 | 5.1
4 | CCc1cc2c(C3CCN(CCC#N)CC3)n[nH]c2cc1-c1cc(C)c2ncnn2c1 [Example 106, 3-(4-(5-ethyl-6-(8-methyl-[1,2,4]triazolo[1,5-a]pyridin-6-yl)-1H-indazol-3-yl)piperidin-1-yl)propanenitrile] | 39800 | 0.2 | 7.2
5 | CCc1cc2c(C3CCN(C(=O)CCCN(C)C)CC3)n[nH]c2cc1-c1cc(C)c2ncnn2c1 [Example 107, 4-(dimethylamino)-1-(4-(5-ethyl-6-(8-methyl-[1,2,4]triazolo[1,5-a]pyridin-6-yl)-1H-indazol-3-yl)piperidin-1-yl)butan-1-one] | 16700 | 1.7 | 10.3
6 | CCc1cc2c(C3CCN(CCC(F)(F)F)CC3)n[nH]c2cc1-c1cc(C)c2ncnn2c1 [Example 108, 6-(5-ethyl-3-(1-(3,3,3-trifluoropropyl)piperidin-4-yl)-1H-indazol-6-yl)-8-methyl-[1,2,4] triazolo[1,5-a]pyridine] | 23500 | 0.2 | 5.6
7 | Cc1cc(-c2cc3[nH]nc(C4CCN(C(=O)CN(C)C)CC4)c3cc2C(C)C)cn2ncnc12 [Example 111, 2-(dimethylamino)-1-(4-(5-isopropyl-6-(8-methyl-[1,2,4]triazolo[1,5-a]pyridin-6-yl)-1H-indazol-3-yl)piperidin-1-yl)ethan-1-one] | 18600 | 0.5 | 1.8
8 | Cc1cc(-c2cc3[nH]nc(C4CCN(CC(=O)N(C)C)CC4)c3cc2C(C)C)cn2ncnc12 [Example 112, 2-(4-(5-isopropyl-6-(8-methyl-[1,2,4]triazolo[1,5-a]pyridin-6-yl)-1H-indazol-3-yl)piperidin-1-yl)-N,N-dimethylacetamide] | 20900 | 0.3 | 1.5
9 | Cc1cc(-c2cc3[nH]nc(C4CCN(CC(C)(C)O)CC4)c3cc2C(C)C)cn2ncnc12 [Example 113, 1-(4-(5-isopropyl-6-(8-methyl-[1,2,4]triazolo[1,5-a]pyridin-6-yl)-1H-indazol-3-yl)piperidin-1-yl)-2-methylpropan-2-ol] | 20300 | 0.1 | 1.5

Continued, values first:

Row | IC50 (human TLR9) [nM] | IC50 (human TLR8) [nM] | IC50 (human TLR7) [nM] | SMILES
10 | 12200 | 0.2 | 5.6 | CCc1cc2c(C3CCN(CC(C)(C)O)CC3)n[nH]c2cc1-c1cc(C)c2ncnn2c1 [Example 101, 1-(4-(5-ethyl-6-(8-methyl-[1,2,4]triazolo[1,5-a]pyridin-6-yl)-1H-indazol-3-yl)piperidin-1-yl)-2-methylpropan-2-ol]
11 | 10900 | 0.4 | 1 | Cc1cc(-c2cc3[nH]nc(C4CCNCC4)c3cc2C(C)C)cn2ncnc12 [Example 102, 6-(5-isopropyl-3-(piperidin-4-yl)-1H-indazol-6-yl)-8-methyl-[1,2,4]triazolo[1,5-a]pyridine]
12 | 1630 | 2.6 | 2 | CCc1cc(-c2cc(C)c3ncnn3c2)cc2[nH]nc(C3CCNCC3)c12 [Example 109, 6-(4-ethyl-3-(piperidin-4-yl)-1H-indazol-6-yl)-8-methyl-[1,2,4]triazolo[1,5-a]pyridine]
13 | 3860 | 1.8 | 2.4 | CCc1cc(-c2cc(C)c3ncnn3c2)cc2[nH]nc(C3CCN(C(=O)CN(C)C)CC3)c12 [Example 110, 2-(dimethylamino)-1-(4-(4-ethyl-6-(8-methyl-[1,2,4]triazolo[1,5-a]pyridin-6-yl)-1H-indazol-3-yl)piperidin-1-yl)ethan-1-one]
14 | 6700 | 0.1 | 0.6 | Cc1cc(-c2cc3[nH]nc(C4CCC(N(C)C)CC4)c3cc2C(C)C)cn2ncnc12 (stereo not drawn) [Example 115, 4-(5-isopropyl-6-(8-methyl-[1,2,4]triazolo[1,5-a]pyridin-6-yl)-1H-indazol-3-yl)-N,N-dimethylcyclohexan-1-amine]
